Laboratory results as given in the NIST ThermoML archive (doi:10.1016/j.tca.2012.02.002).
± gives the expanded uncertainty stated by the source.

Details: 293 K; 101.33 kPa; Crystal; X-ray diffraction

O=P([O-])([O-])[O-].[Er+3] [erbium phosphate]
molar volume: 4.271e-05 ± 5.1e-07 m3/mol
